Test results reported in patent US5296494A, “Pyrrolidine compounds having thromboxane A2 receptor antagonistic activity and thromboxane A2 synthase inhibiting activity” (Adir et Compagnie, priority 1991, dated 1994).
Counter-ions that a name gives are not always drawn.

Assays:
thromboxane synthase = biological target: T1, thromboxane synthase (Oryctolagus cuniculus, UniProt G1TAZ9); test: Anti-thromboxane synthase activity (TXB2 levels in serum of rabbit blood, radio immunoassay); type: cell-based; conditions: 37° C., one hour, serum TXB2 by radio immunoassay, read-out: IC50, inhibition of TXB2 level
T1 construct: from tissue; host or cells: rabbit whole blood (clotting; by own knowledge the enzyme is chiefly that of platelets)
T1 sequence (G1TAZ9 1-530): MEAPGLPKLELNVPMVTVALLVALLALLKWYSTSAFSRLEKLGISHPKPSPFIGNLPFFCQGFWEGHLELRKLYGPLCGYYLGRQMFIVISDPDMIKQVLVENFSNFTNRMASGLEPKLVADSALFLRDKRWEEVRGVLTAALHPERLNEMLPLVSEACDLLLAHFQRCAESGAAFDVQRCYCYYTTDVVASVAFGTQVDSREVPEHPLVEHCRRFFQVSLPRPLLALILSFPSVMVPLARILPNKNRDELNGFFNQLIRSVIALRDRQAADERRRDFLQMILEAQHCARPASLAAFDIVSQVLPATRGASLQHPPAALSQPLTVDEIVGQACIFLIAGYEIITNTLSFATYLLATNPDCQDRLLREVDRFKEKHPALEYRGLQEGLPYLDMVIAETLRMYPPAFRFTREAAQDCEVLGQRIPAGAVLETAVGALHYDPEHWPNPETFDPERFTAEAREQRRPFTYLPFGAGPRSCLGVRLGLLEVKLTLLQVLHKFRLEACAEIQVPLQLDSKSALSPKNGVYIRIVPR
Method: Anti-thromboxane synthase activity
Albino New Zealand rabbits weighing approximately 2 kg are used. These rabbits are anesthetized with pentobarbital (30 mg/kg i.v.). Blood is collected via carotid catheter in dry glass tubes, in the proportion of 1 ml per tube, in the presence or absence of different concentrations of inhibitor. The inhibitors are diluted in physiological fluid in order to avoid possible hemolysis.
The tubes are placed in a water bath at 37° C. for one hour. After coagulation, the tubes are cooled to 4° C. and centrifuged at 2000 g for 20 minutes in order to separate the serum from the clot. The serum may be frozen at -20° C. for 2 weeks for a subsequent assay.
The levels of TXB2, the stable metabolite of TXA2, in the serum are determined by radio immunoassay.
The levels obtained in the presence of the different doses of inhibitor are converted to a percentage inhibition relative to the baseline level of TXB2, in order to calculate the IC50 of the inhibitor. The latter is obtained by non-linear regression using the following equation (Michaelis L, Menten ML, Die Kinetik der Invertinwirkung, Biochem. Zeitschrifft, 1913, 49, 333-369):
I=(Imax * C^n) / (IC^n +C^n)
C=inhibitor concentration

[1] = test system: thromboxane receptor (increase in tracheal pressure caused by U46619); test: IC50 on tracheal pressure in guinea pigs (U46619-induced bronchoconstriction); type: in vivo, guinea pig; conditions: anesthetized guinea pigs, antagonist injected 5 minutes before U46619 (2 μg/kg i.v.); for ED50: Cavia porcellus, iv, 5 min, read-out: IC50, dose of antagonist that inhibits by 50% the increase in tracheal pressure caused by U46619
Text: IC50 on tracheal pressure in guinea pigs
Male albino guinea pigs (350-400 g) subjected to an 18-hour water diet are anesthetized with ethyl carbamate (1.25 g/kg i.p.). A catheter is introduced into the carotid artery in order to measure the arterial blood pressure by means of a pressure cell. A second catheter is introduced into the jugular vein and is used to inject the pharmacological substances. The trachea is cannulated and the guinea pig is placed in assisted respiration by means of a respirator. The animal's temperature is maintained at 37° C. using a thermostated blanket. A needle pushed into the tracheal cannula is connected to a pressure cell and enables the tracheal pressure to be recorded.
The guinea pigs are pretreated with d-tubocurarine (1 mg/kg i.v.) and with indomethacin (10 mg/kg i.v.). Injected at a dose of 2 μg/kg i.v., U46619 produces a bronchoconstriction which leads to an increase in tracheal pressure and induces an increase in arterial blood pressure. The responses to U46619 are reversible and reproducible if the injections are carried out every 10 minutes.
The thromboxane receptor antagonists are injected 5 minutes before the injections of U46619. The dose of antagonist that inhibits by 50% the increase in tracheal pressure caused by U46619 is determined (IC50).

guinea pig trachea = biological target: T2, guinea pig trachea (Cavia porcellus, UniProt A0A286Y4I8); test: Determination of the pA2 values on guinea pig trachea (U46619-induced contraction); type: cell-based; conditions: isolated guinea pig trachea rings, 37° C., agonist U46619, antagonist contact 20 minutes
T2 construct: the trachea is rapidly removed and then cut into two-cartilage rings; from tissue; host or cells: guinea pig trachea, two-cartilage rings (isolated organ)
T2 sequence (A0A286Y4I8 1-347): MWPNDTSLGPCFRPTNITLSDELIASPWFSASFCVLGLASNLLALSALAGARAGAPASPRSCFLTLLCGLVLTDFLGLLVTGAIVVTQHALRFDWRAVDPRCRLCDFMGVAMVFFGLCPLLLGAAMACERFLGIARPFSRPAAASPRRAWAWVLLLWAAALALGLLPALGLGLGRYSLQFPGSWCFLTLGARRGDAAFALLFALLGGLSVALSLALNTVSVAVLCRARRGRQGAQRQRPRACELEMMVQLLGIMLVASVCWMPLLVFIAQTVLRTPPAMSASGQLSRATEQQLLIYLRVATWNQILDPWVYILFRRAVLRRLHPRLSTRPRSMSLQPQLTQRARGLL
Method: Determination of the pA2 values on guinea pig trachea
Male albino guinea pigs weighing 400-500 grams were sacrificed by a blow to the back of the neck and by cervical elongation. The throat is opened and the trachea is rapidly removed and then cut into two-cartilage rings. These rings are mounted between two hooks in cells thermostated at 37° C. containing physiological fluid (composition in mM:NaCl 118; NaHCO3 25; glucose 10; KCl 4.7; CaCl2 1.25; MgSO4 1.19; KH2 PO4 1.14).
A 95% O2 /5% CO2 mixture is bubbled through the physiological solution. The lower hook constitutes the fixed point while the upper hook is connected to an isometric strength gage. The tissues are placed under a baseline tension of 3.5 grams. The test pharmacological substances are prepared immediately before use. The drugs are solubilized in water or in dimethyl sulfoxide.
After mounting, the preparations are left standing for 90 minutes, rinses being performed every 30 minutes. After readjustment of the baseline tension, a contraction produced by a single dose of agonist (U46619; 10^-5 M) is produced in order to make the following contractions consist. After washing and return to the baseline, a first effect/concentration curve is established by adding cumulative doses of U46619 (10^-9 M to 10^-5 M, with semi-log spacing between the doses). This first experiment enables the "control" 50% effective concentration (EC50) to be calculated.
This EC50 is routinely calculated in the following manner: the tension values are first converted to percentages relative to the maximum effect, these percentages then being plotted on a graph with the percentages as ordinates and the log (concentration) values as abscissae. A linear regression is then carried out on the points lying between 10% and 90% (which corresponds to the linear portion of the sigmoid curve). The concentration corresponding to half the maximum effect (50%) may be readily calculated using the parameters of the linear plot.
After washing and return to the baseline, the organ is brought into contact with the antagonist ([…]) for 20 minutes. A second effect/concentration curve is then established in the presence of the antagonist, and the "treated" EC50 can then be calculated. All the elements enabling the pA2 (competitive antagonism) or pD2 (non-competitive antagonism) to be calculated are thereby obtained.
The pA2 (which represents the negative logarithm of the antagonist concentration in the presence of which twice as much agonist is required in order to obtain the same effect) is determined by plotting on a graph the values of log ((L/1)-1) with respect to log (antagonist concentration), where L=effect in presence of antagonist and 1=control effect.

[2] = test system: platelet aggregation response induced by U46619 (TXA2 receptor agonist); test: Platelet aggregation: inhibition of U46619-induced aggregation of rabbit platelet-rich plasma; type: cell-based; conditions: Oryctolagus cuniculus, rabbit PRP, 37° C., antagonist 3 min before U46619 (1.2 μM), read-out: IC50, concentration inducing 50% inhibition of the aggregation response induced by U46619
Method: Rabbits (2-3 kg) are anesthetized with pentobarbital sodium (30 mg/kg i.v.). After cannulation of the left carotid artery, blood is withdrawn onto sodium citrate (0.109M) (1 vol. of citrate per 9 vol. of blood).
Platelet-rich plasma (PRP) is obtained by centrifugation (20° C.) at 250 g for 20 minutes, and platelet- poor plasma (PPP) by centrifugation at 1000 g (10 min). The number of platelets (PL) in the PRP is adjusted to 300-350,000 PL/mm^3 by dilution with autologous PPP. The PRP is stored at the temperature of the room until the time of the test, and is used within 4 hours following withdrawal.
Platelet aggregation is carried out at 37° C. in siliconed glass tubes using an aggregometer. The PRP and PL are stirred at 1000 rpm (revolutions per minute). In order to study the activity of thromboxane antagonists, the PRP is incubated for 1 min at 37° C., and the antagonist is then added for a period of 3 min before addition of the agonist U46619 (1.2 μM). The final volume in the cell is then 250 μl. The intensity of platelet aggregation is established by taking the maximum amplitude of the aggregation plots and is expressed as a percentage light transmission (% T). The activity of the antagonists is expressed as IC50, that is to say the concentration of the substance which induces a 50% inhibition of the aggregation response induced by U46619.

SMILES: O=C(O)CC/C=C\C[C@@H]1CCN(Cc2cccnc2)[C@@H]1c1ccccc1 (relative stereo) [Example 21, (4Z)-6-{(2α,3α)-1-[(3-Pyridyl)methyl]-2-phenyl-3-pyrrolidinyl}-4-hexenoic acid sodium salt]
- IC50 (thromboxane synthase): 8.5 µM
- ED50 [1]: 0.17 mg/kg
- Kb (guinea pig trachea): 0.00182 µM

SMILES: O=C(O)CCCCC[C@@H]1CCN(S(=O)(=O)c2ccc(F)cc2)[C@@H]1c1cccnc1 (relative stereo) [Example 20, 6-[(2α,3α)-1-(4-Fluorophenylsulfonyl)-2-(3-pyridyl)-3-pyrrolidinyl) hexanoic acid sodium salt]
- IC50 (thromboxane synthase): 60 µM

SMILES: O=C(O)CCC/C=C\C[C@@H]1CCN(S(=O)(=O)c2ccc(F)cc2)[C@@H]1c1cccc(O)c1 (relative stereo) [Example 15, (5Z)-7-[(2α,3α)-1-(4-Fluorophenylsulfonyl)-2-(3-hydroxyphenyl)-3-pyrrolidinyl]-5-heptenoic acid sodium salt]
- IC50 [2]: 20 µM
- ED50 [1]: 0.16 mg/kg
- Kb (guinea pig trachea): 0.0398 µM

SMILES: O=C([O-])CC/C=C\C[C@@H]1CCN(S(=O)(=O)c2ccc(F)cc2)[C@H]1c1ccccc1.[Na+] [Example 4, (4Z)-6-[(2α,3α)-1-(4-Fluorophenylsulfonyl)-2-phenyl-3-pyrrolidinyl]-4-hexenoic acid sodium salt]
- IC50, dose of antagonist that inhibits by 50% the increase in tracheal pressure caused by U46619 [1]: 0.7 mg/kg

SMILES: COc1cccc([C@@H]2[C@H](C/C=C\CCC(=O)O)CCN2S(=O)(=O)c2ccc(F)cc2)c1 (relative stereo) [Example 1, (4Z)-6-[(2α,3α)-1-(4-Fluorophenylsulfonyl)-2-(3-methoxyphenyl)-3-pyrrolidinyl]-4-hexenoic acid sodium salt]
- Kb (guinea pig trachea): 0.0631 µM

SMILES: O=C(O)CC/C=C\C[C@@H]1CCN(Cc2cccnc2)[C@@H]1c1cccc(O)c1 (relative stereo) [Example 26, (4Z)-6-{(2α,3α)-1-[(3-Pyridyl)methyl]-2-(3-hydroxyphenyl) -3-pyrrolidinyl}-4-hexenoic acid sodium salt]
- ED50 [1]: 0.03 mg/kg
- Kb (guinea pig trachea): 0.0309 µM

SMILES: O=C(O)CC/C=C\C[C@@H]1CCN(S(=O)(=O)c2ccc(F)cc2)[C@@H]1c1cccc(O)c1 (relative stereo) [Example 14, (4Z)-6-[(2α,3α)-1-(4-Fluorophenylsulfonyl)-2-(3-hydroxyphenyl)-3-pyrrolidinyl]-4-hexenoic acid sodium salt]
- IC50 [2]: 20 µM
- ED50 [1]: 0.07 mg/kg
- Kb (guinea pig trachea): 0.01 µM

SMILES: O=C(O)CC/C=C\C[C@@H]1CCN(S(=O)(=O)c2ccc(F)cc2)[C@@H]1c1cccnc1 (relative stereo) [Example 2, (4Z)-6-[(2α,3α)-1-(4-Fluorophenylsulfonyl)-2-(3-pyridyl)-3-pyrrolidinyl]-4-hexenoic acid sodium salt]
- IC50 (thromboxane synthase): 200 µM

SMILES: O=C(O)CCCCC[C@@H]1CCN(Cc2cccnc2)[C@@H]1c1ccccc1 (relative stereo) [Example 22, 6-{(2α,3α)-1-[(3-Pyridyl)methyl]-2-phenyl-3-pyrrolidinyl}hexanoic acid sodium salt]
- Kb (guinea pig trachea): 7.08 µM
